Test results as given in patent US8628864B2, “Indolo[3,2,1-jk]carbazole compound and organic light-emitting device containing the same” (Canon Kabushiki Kaisha, priority 2010, dated 2014).

Key:
Type in all cases: physicochemical
[1] = Ionization potential of evaporated thin film, photoelectron spectrometer AC-3
Description: The ionization potential of the evaporated thin film used in the measurement of the energy gap described above was measured with a photoelectron spectrometer AC-3 (manufactured by Riken Keiki Co., Ltd.). The ionization potential of the exemplary compound C-1 was 6.01 eV.

[2] = Solubility: amount of chlorobenzene required to dissolve 10 mg of compound; details: 10 mg compound
Description: The amount of chlorobenzene required to dissolve 10 mg of the exemplary compound C-1 was determined. As a result, the amount of chlorobenzene required to dissolve 10 mg of the exemplary compound C-1 was 1 ml or less.

[3] = Color of evaporated film on glass substrate left to stand in the air; details: in the air at room temperature, approximately two hours

Ionization potential [1] | Amount of chlorobenzene required to dissolve 10 mg of compound [2] | Color of film 2 h after film formation [3] | SMILES
5.83 eV | 50 or more ml | pale yellowish brown | c1ccc2c(c1)c1cc(-c3cc(-c4cc5c6ccccc6n6c7ccccc7c(c4)c56)cc(-c4cc5c6ccccc6n6c7ccccc7c(c4)c56)c3)cc3c4ccccc4n2c13 [FH-01]
5.72 eV | 10 mL | pale yellowish brown | c1ccc2c(c1)c1cc(-c3ccc(-c4cc5c6ccccc6n6c7ccccc7c(c4)c56)cc3)cc3c4ccccc4n2c13 [FH-02]
